Test results reported in publication PMC11079024, “Identification of a family of species-selective complex I inhibitors as potential anthelmintics” (Nature Communications, 2024).
Where “and” joins values, the source holds several entries; their conditions need not be identical. Equal entries are not always repeated. Where two headings read alike, the source gives them in different places.

How the values were obtained:
[1] = system: adult H. polygyrus; format: cell-based, Heligmosomoides polygyrus; conditions: aerobic; for Worm viability score of individual worm, scale from 0 (dead) to 3 (motile): single worms; for Percent Worms Affected: affected = score equal to or lower than 1.5; for effect on adult H. polygyrus viability: 10 µM, 24-h exposure
Protocol: After either 24- or 72 h chemical treatment, worm viability was manually scored by an examiner using a scale from 0 (dead) to 3 (motile); DMSO was used as a negative control in both 24- and 72 h treatments. The percentage of affected worms (i.e., worms with a score equal to or lower than 1.5) in each biological replicate is shown; data are from two biological replicates. Within each boxplot, black horizontal lines denote group medians, boxes span from the 25th to the 75th percentile of each group’s distribution, and whiskers extend to the maximum and minimum values.
The eleven benzimidazole derivatives were tested at a concentration of 10 µM under aerobic conditions against L3 and adult H. polygyrus.
For the larval assay, mice feces were collected 2 weeks post-infection and eggs were isolated. The eggs were left on agar at room temperature in the dark for eight to 10 days to allow them to develop into L3. Next, 30–40 L3 were incubated (37 °C, 5% CO2) in the culture medium (RPMI 1640 medium + 1% pen./strep. + 5% amphotericin B) containing the derivatives in 96-well plate (Corning, USA) reaching a final volume of 250 µL for 24 h. For the adult drug screening assay, female NMRI mice were euthanized with CO2 and adult H. polygyrus were dissected out of the intestines. Subsequently, three worms were exposed to the culture medium (RPMI 1640 medium + 1% pen./strep. + 5% amphotericin B) with the derivatives (2 mL) in a 24-well plate (Corning, USA) for either 24 or 72 h. DMSO ( < 1%) served as a negative control in both assays. All conditions were tested in duplicates. Finally, 80 µL of hot water ( ~ 80 °C) for L3 and 500 µL of hot water (~80 °C) for adults were added to the wells to check for their viability under a microscope (Carl Zeiss, Germany). Larvae were categorized as being either alive or dead, depending on whether they moved or not. […] The whole experiment was performed two times i.e., two independent biological replicates for both life stages (L3s and adults) and exposure times (24 and 72 h).

[2] = system: L1 wild-type C. elegans; test: whole plant or invertebrate; conditions: Caenorhabditis elegans, 15 h, read-out: C. elegans KCN Survival Assay LC50
[3] = system: C. elegans complex III (decylubiquinol-cytochrome C reductase); test: In vitro complex III activity assay, C. elegans mitochondria; format: biochemical, Caenorhabditis elegans; conditions: for % Activity Complex III: 100 µM compound, relative to solvent control, mean (SEM); for Percent in vitro activity, Complex III (single replicate Rep1-Rep4) / Percent in vitro activity, Complex III (Mean): 100 μM of NPD compound, C. elegans mitochondria; for Percent in vitro activity, Complex III (single replicate Rep1-Rep4): individual biological replicates; for Percent in vitro activity, Complex III (Mean): mean of four biological replicates; for CIII Activity: 100 μM inhibitor, in vitro activity relative to solvent control, N2 C. elegans mitochondria
Summary of the method: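 Mitochondria were isolated from adult C. elegans by bead-beating and differential centrifugation, then used at 0.2 mg/mL protein. Antimycin A-sensitive complex III activity was followed as decylubiquinol-driven cytochrome C reduction at 550 nm every 30 s for 15 min. Initial linear slopes were expressed as percent of solvent control.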

[4] = system: C. elegans complex IV (cytochrome C oxidase); test: In vitro complex IV activity assay, C. elegans mitochondria; format: biochemical, Caenorhabditis elegans; conditions: for % Activity Complex IV: 100 µM compound, relative to solvent control, mean (SEM); for Percent in vitro activity, Complex IV (single replicate Rep1-Rep4) / Percent in vitro activity, Complex IV (Mean): 100 μM of NPD compound, C. elegans mitochondria; for Percent in vitro activity, Complex IV (single replicate Rep1-Rep4): individual biological replicates; for Percent in vitro activity, Complex IV (Mean): mean of four biological replicates; for CIV Activity: 100 μM inhibitor, in vitro activity relative to solvent control, N2 C. elegans mitochondria
Summary of the method: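 Cytochrome C oxidase activity read spectrophotometrically at 550 nm (30 s intervals, 15 min) as oxidation of freshly DTT-reduced CytC. Mitochondria (0.2 mg/mL) came from adult worms of six C. elegans strains grown at 20 °C. Rates were taken from initial linear phase and normalised to solvent-control wells.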

[5] = adult H. polygyrus, in vitro, 24 hours, per biological replicate
[6] = adult H. polygyrus, in vitro, 24 hours
[7] = adult H. polygyrus, in vitro, 72 hours, per biological replicate
[8] = adult H. polygyrus, in vitro, 72 hours
[9] = adult H. polygyrus, replicate 1, 24 hours after treatment
[10] = adult H. polygyrus, replicate 2, 24 hours after treatment
[11] = replicate 1, 24 hours after treatment, worms with score equal to or lower than 1.5
[12] = replicate 2, 24 hours after treatment, worms with score equal to or lower than 1.5

SMILES | Percent Worms Affected (worms with a score equal to or lower than 1.5) [1, 5] | Worm viability score of individual worm, scale from 0 (dead) to 3 (motile) [1, 6] | Percent Worms Affected (worms with a score equal to or lower than 1.5) [1, 7] | Worm viability score of individual worm, scale from 0 (dead) to 3 (motile) [1, 8] | Percent Worms Affected [1, 9] [%] | Percent Worms Affected [1, 10] [%] | # of Worms Affected [1, 11] | # of Worms Affected [1, 12] | LC50 [2] [µM] | also measured
Brc1ccc(Cn2cnc3ccccc32)cc1 [Compound 5542661] | 17% and 0% | 2.5 and 2 | 17% and 83% | 1.5 |  |  |  |  |  | 
Cc1nc2ccccc2n1Cc1ccc(Br)cc1 [Compound 5567167] | 33% and 17% | 2.5 and 2 and 1.5 | 83% and 100% | 1.5 | 33 | 17 | 2 | 1 |  | 
Cc1nc2ccccc2n1Cc1ccccc1Cl [Compound 6707368] | 0% and 14% | 2.5 | 29% and 100% | 1.5 | 0 | 14 | 0 | 1 |  | 
Clc1ccc(Cn2cnc3ccccc32)c(Cl)c1 [Compound 6750659] | 33% and 17% | 1.5 and 2.5 | 33% and 100% | 1.5 | 33 | 17 | 2 | 1 |  | 
Cc1ccccc1OCCCCn1cnc2ccccc21 [Compound 7732524] | 67% | 1.25 (4×) and 1 | 83% and 100% | 0.5 | 100 | 67 | 6 | 4 | 6.4 | effect on adult H. polygyrus viability [1]: potent effects; # of Worms Affected [1, 5]: 4 and 6
Clc1ccc(SCCCCn2cnc3ccccc32)cc1 [Compound 7925515] | 50% and 100% | 1.5 | 100% |  | 100 | 50 | 6 | 4 |  | effect on adult H. polygyrus viability [1]: potent effects
Clc1ccccc1OCCCCn1cnc2ccccc21 [Compound 7925804] | 60% and 67% | 1.5 and 2 | 100% and 83% | 1.5 |  |  | 2 | 4 |  | effect on adult H. polygyrus viability [1]: potent effects; # of Worms Affected [1, 7]: 5
CC(C)(C)c1ccc(CCOc2ncnc3ccccc23)cc1 [Fenazaquin, reference compound] |  |  |  |  |  |  |  |  | 0.5 | 
COc1cc2c(cc1OC)C(c1ccc(-c3ccc(Cl)c(Cl)c3)o1)=NCC2 [NPD3577] |  |  |  |  |  |  |  |  | 16 | % Activity Complex III [3]: 65.54 (2.59) %; Percent in vitro activity, Complex III (single replicate Rep1-Rep4) [3]: 80.555% and 63.410% and 61.250% and 56.942%; Percent in vitro activity, Complex III (Mean) [3]: 65.539%; % Activity Complex IV [4]: 81.06 (2.34) %; Percent in vitro activity, Complex IV (single replicate Rep1-Rep4) [4]: 78.287% and 81.122% and 71.227% and 93.621%; Percent in vitro activity, Complex IV (Mean) [4]: 81.064%
COc1cc2c(cc1OC)C(/C=C/c1ccc(N(C)C)cc1)=NCC2 [NPD6303] |  |  |  |  |  |  |  |  | 32.2 | % Activity Complex III [3]: 78.10 (1.39) %; Percent in vitro activity, Complex III (single replicate Rep1-Rep4) [3]: 81.950% and 83.314% and 71.366% and 75.773%; Percent in vitro activity, Complex III (Mean) [3]: 78.101%; % Activity Complex IV [4]: 83.07 (1.76) %; Percent in vitro activity, Complex IV (single replicate Rep1-Rep4) [4]: 86.689% and 90.588% and 80.321% and 74.685%; Percent in vitro activity, Complex IV (Mean) [4]: 83.071%
COc1cc2c(cc1OC)C(C(C)c1ccc(CC(C)C)cc1)=NCC2 (stereo not shown) [NPD10504] |  |  |  |  |  |  |  |  | 15.6 | % Activity Complex III [3]: 79.51 (1.51) %; Percent in vitro activity, Complex III (single replicate Rep1-Rep4) [3]: 86.667% and 75.479% and 82.250% and 73.635%; Percent in vitro activity, Complex III (Mean) [3]: 79.508%; % Activity Complex IV [4]: 74.57 (1.35) %; Percent in vitro activity, Complex IV (single replicate Rep1-Rep4) [4]: 71.688% and 71.402% and 72.596% and 82.587%; Percent in vitro activity, Complex IV (Mean) [4]: 74.568%
C=C(C)[C@H]1Cc2c(ccc3c2O[C@@H]2COc4cc(OC)c(OC)cc4[C@@H]2C3=O)O1 [Rotenone, reference compound] |  |  |  |  |  |  |  |  | 0.8 | % Activity Complex III [3]: 99.20 (1.32) %; CIII Activity ([3]; Mean): 99.203%; CIII Activity ([3]; single replicate): 92.288% and 102.759% and 97.964% and 103.800%; Percent in vitro activity, Complex III (single replicate Rep1-Rep4) [3]: 102.759% and 97.964% and 103.800% and 92.288%; Percent in vitro activity, Complex III (Mean) [3]: 99.203%; % Activity Complex IV [4]: 99.57 (1.12) %; CIV Activity ([4]; Mean): 99.566%; CIV Activity ([4]; single replicate): 94.435% and 102.333% and 104.163% and 97.333%; Percent in vitro activity, Complex IV (single replicate Rep1-Rep4) [4]: 102.333% and 104.163% and 97.333% and 94.435%; Percent in vitro activity, Complex IV (Mean) [4]: 99.566%
Cc1nc2ccccc2n1Cc1ccc(Cl)cc1 [STK697993] | 17% | 2.5 and 1.5 | 17% and 100% |  | 17 | 17 | 1 | 1 | 8.2 | # of Worms Affected [1, 5]: 1
CCn1c(C(C)c2ccc(CC(C)C)cc2)nc2ccccc21 (stereo not shown) [STK951902] | 67% and 83% | 2 and 1 and 1.5 | 100% and 67% |  | 67 | 83 | 4 | 5 |  | effect on adult H. polygyrus viability [1]: potent effects
CC(C)Cc1ccc(C(C)c2nc3ccccc3n2C(C)C)cc1 (stereo not shown) [STK951903] | 67% and 14% | 1.5 and 2.5 and 2 | 100% |  | 67 | 14 | 4 | 1 |  | # of Worms Affected [1, 7]: 6
Cc1cc(O)c2c(c1)O[C@@]1(C)CC[C@H]3C(C)(C)CCC[C@]34CO[C@@H]2[C@H]41 [Siccanin] |  |  |  |  |  |  |  |  | 6.3 | 
O=C(NCCc1ccc(Cl)cc1)c1ccccc1C(F)(F)F [Wact-11] |  |  |  |  |  |  |  |  |  | % Activity Complex III [3]: 90.97 (1.75) %; CIII Activity ([3]; Mean): 90.970%; CIII Activity ([3]; single replicate): 83.802% and 95.824% and 97.988% and 86.268%; Percent in vitro activity, Complex III (single replicate Rep1-Rep4) [3]: 83.802% and 95.824% and 97.988% and 86.268%; Percent in vitro activity, Complex III (Mean) [3]: 90.970%; % Activity Complex IV [4]: 89.00 (0.63) %; CIV Activity ([4]; Mean): 88.998%; CIV Activity ([4]; single replicate): 91.037% and 86.647% and 91.305% and 87.004%; Percent in vitro activity, Complex IV (single replicate Rep1-Rep4) [4]: 91.037% and 86.647% and 91.305% and 87.004%; Percent in vitro activity, Complex IV (Mean) [4]: 88.998%
